# Where two headings read alike, the source gives them in different places.
# Columns and labels:
# [1] = biological target: T1, HCV NS3/4A protease complex (BMS strain) (UniProt P27958, C1454S/C1711G, species not given); assay: Recombinant HCV NS3/4A protease complex FRET peptide assay; type: biochemical, Hepatitis C virus (HCV), genotype 1a; settings: NS3/4A BMS strain, activity range class
# T1 construct: for H77 and J4L6S; fused on or other part: Three-lysine solubilising tail at the C-terminus of NS4A
# Text: Recombinant HCV NS3/4A Protease Complex FRET Peptide Assay
# Serum from an HCV-infected patient was obtained from Dr. T. Wright, San Francisco Hospital. An engineered full-length cDNA (compliment deoxyribonucleic acid) template of the HCV genome (BMS strain) was constructed from DNA fragments obtained by reverse transcription-PCR (RT-PCR) of serum RNA (ribonucleic acid) and using primers selected on the basis of homology between other genotype 1a strains.
# The H77 and J4L6S strains were used for production of recombinant NS3/4A protease complexes. […] Briefly, a three-lysine solubilizing tail was added at the 3′-end of the NS4A coding region. […] Briefly, the NS3/4A protease complex expression was induced with 0.5 millimolar (mM) Isopropyl β-D-1-thiogalactopyranoside (IPTG) for 22 hours (h) at 20° C. […] The cells were resuspended in lysis buffer (10 mL/g) consisting of 25 mM N-(2-Hydroxyethyl)piperazine-N′-(2-Ethane Sulfonic acid) (HEPES), pH 7.5, 20% glycerol, 500 mM Sodium Chloride (NaCl), 0.5% Triton X-100, 1 microgram/milliliter (“μg/mL”) lysozyme, 5 mM Magnesium Chloride (MgCl2), 1 μg/ml DnaseI, 5 mM β-Mercaptoethanol (βME), Protease inhibitor—Ethylenediamine Tetraacetic acid (EDTA) free (Roche), homogenized and incubated for 20 minutes (min) at 4° C. The homogenate was sonicated and clarified by ultra-centrifugation at 235000 g for 1 h at 4° C. Imidazole was added to the supernatant to a final concentration of 15 mM and the pH adjusted to 8.0. The crude protein extract was loaded on a Nickel—Nitrilotriacetic acid (Ni-NTA) column pre-equilibrated with buffer B (25 mM HEPES, pH 8.0, 20% glycerol, 500 mM NaCl, 0.5% Triton X-100, 15 mM imidazole, 5 mM βME). The sample was loaded at a flow rate of 1 mL/min. The column was washed with 15 column volumes of buffer C (same as buffer B except with 0.2% Triton X-100). The protein was eluted with 5 column volumes of buffer D (same as buffer C except with 200 mM Imidazole).
# NS3/4A protease complex-containing fractions were pooled and loaded on a desalting column Superdex-S200 pre-equilibrated with buffer D (25 mM HEPES, pH 7.5, 20% glycerol, 300 mM NaCl, 0.2% Triton X-100, 10 mM βME). Sample was loaded at a flow rate of 1 mL/min. NS3/4A protease complex-containing fractions were pooled and concentrated to approximately 0.5 mg/ml.
# The enzyme was stored at −80° C., thawed on ice and diluted prior to use in assay buffer. […] The sequence of this peptide is loosely based on the NS4A/NS4B natural cleavage site for the HCV NS3 protease except there is an ester linkage rather than an amide bond at the cleavage site. The peptide substrate was incubated with one of the three recombinant NS3/4A protease complexes, in the absence or presence of a compound of the present invention, and the formation of fluorescent reaction product was followed in real time using a Cytofluor Series 4000.
# The reagents were as follow: HEPES and Glycerol (Ultrapure) were obtained from GIBCO-BRL. Dimethyl Sulfoxide (DMSO) was obtained from Sigma. β-Mercaptoethanol was obtained from Bio Rad.
# Assay buffer: 50 mM HEPES, pH 7.5; 0.15 M NaCl; 0.1% Triton; 15% Glycerol; 10 mM βME. Substrate: 2 μM final concentration (from a 2 mM stock solution in DMSO stored at −20° C.). HCV NS3/4A protease type 1a (1b), 2–3 nM final concentration (from a 5 μM stock solution in 25 mM HEPES, pH 7.5, 20% glycerol, 300 mM NaCl, 0.2% Triton-X100, 10 mM βME).
# The assay was performed in a 96-well polystyrene black plate from Falcon.
# [2] = tested on: HCV replicon in Huh7 cells; assay: microbe, parasite or virus in culture; type: cell-based, strain 1b; settings: Hepatitis C virus, Huh-7, 96 h; Huh7 cells expressing HCV replicon, 4 days; activity range class
# Text: Generation of HCV Replicon
# This system enabled us to evaluate the effects of our HCV Protease compounds on HCV RNA replication. Briefly, using the HCV strain 1b sequence described in the Lohmann paper (Assession number: AJ238799), an HCV cDNA was generated encoding the 5′ internal ribosome entry site (IRES), the neomycin resistance gene, the EMCV (encephalomyocarditis viurs)-IRES and the HCV nonstructural proteins, NS3-NS5B, and 3′ non-translated region (NTR). In vitro transcripts of the cDNA were transfected into the human hepatoma cell line, Huh7. […] Resulting cell lines were characterized for positive and negative strand RNA production and protein production over time.
# Huh7 cells, constitutively expressing the HCV replicon, were grown in Dulbecco's Modified Eagle Media (DMEM) containing 10% Fetal calf serum (FCS) and 1 mg/ml G418 (Gibco-BRL). Cells were seeded the night before (1.5×10^4 cells/well) in 96-well tissue-culture sterile plates. Compound and no compound controls were prepared in DMEM containing 4% FCS, 1:100 Penicillin/Streptomysin, 1:100 L-glutamine and 5% DMSO in the dilution plate (0.5% DMSO final concentration in the assay). Compound/DMSO mixes were added to the cells and incubated for 4 days at 37° C. After 4 days, plates were rinsed thoroughly with Phosphate-Buffered Saline (PBS) (3 times 150 μl). The cells were lysed with 25 μl of a lysis assay reagent containing the FRET peptide (RET S1, as described for the in vitro enzyme assay). The lysis assay reagent was made from 5× cell Luciferase cell culture lysis reagent (Promega #E153A) diluted to 1× with distilled water, NaCl added to 150 mM final, the FRET peptide diluted to 10 μM final from a 2 mM stock in 100% DMSO. The plate was then placed into the Cytofluor 4000 instrument which had been set to 340 nm excitation/490 nm emission, automatic mode for 21 cycles and the plate read in a kinetic mode. EC50 determinations were carried out as described for the IC50 determinations. […]
# The percentage inhibition was calculated using the formula below: […]
# The values were graphed and analyzed using XLFit to obtain the EC50 value.
SMILES,IC50 ([1]; read-out: IC50) [µM],EC50 [2] [µM],IC50 [1] [µM]
C=C[C@@H]1C[C@]1(NC(=O)[C@@H]1C[C@@H](Oc2nccc3c(C(F)(F)F)cccc23)CN1C(=O)[C@@H](NC(=O)OC(C)(C)C)C(C)(C)C)C(=O)NS(=O)(=O)C1(CC)CC1 [Cpd 104],< 0.1,0.1 to 1,
C=C[C@@H]1C[C@]1(NC(=O)[C@@H]1C[C@@H](Oc2nccc3c(Cl)c(OC)ccc23)CN1C(=O)[C@@H](NC(=O)OC(C)(C)C)C(C)(C)C)C(=O)NS(=O)(=O)C1(CC)CC1 [Cpd 105],< 0.1,< 0.1,
C=C[C@@H]1C[C@]1(NC(=O)[C@@H]1C[C@@H](Oc2nccc3c(OC)c(Cl)ccc23)CN1C(=O)[C@@H](NC(=O)OC(C)(C)C)C(C)(C)C)C(=O)NS(=O)(=O)C1(CC)CC1 [Cpd 106],< 0.1,< 0.1,
C=C[C@@H]1C[C@]1(NC(=O)[C@@H]1C[C@@H](Oc2ncc(Cl)c3cc(OC)ccc23)CN1C(=O)[C@@H](NC(=O)OC(C)(C)C)C(C)(C)C)C(=O)NS(=O)(=O)C1(CC)CC1 [Cpd 107],< 0.1,< 0.1,
C=C[C@@H]1C[C@]1(NC(=O)[C@@H]1C[C@@H](Oc2nccc3c4c(ccc23)OCCO4)CN1C(=O)[C@@H](NC(=O)OC(C)(C)C)C(C)(C)C)C(=O)NS(=O)(=O)C1(CC)CC1 [Cpd 108],< 0.1,< 0.1,
C=C[C@@H]1C[C@]1(NC(=O)[C@@H]1C[C@@H](Oc2nccc3cc(OC)c(F)cc23)CN1C(=O)[C@@H](NC(=O)OC(C)(C)C)C(C)(C)C)C(=O)NS(=O)(=O)C1(CC)CC1 [Cpd 109],< 0.1,< 0.1,
C=C[C@@H]1C[C@]1(NC(=O)[C@@H]1C[C@@H](Oc2cc3c(Cl)nccc3cc2OC)CN1C(=O)[C@@H](NC(=O)OC(C)(C)C)C(C)(C)C)C(=O)NS(=O)(=O)C1(CC)CC1 [Cpd 110],< 0.1,< 0.1,
C=C[C@@H]1C[C@]1(NC(=O)[C@@H]1C[C@@H](Oc2nccc3c(Cl)cccc23)CN1C(=O)[C@@H](NC(=O)OC(C)C)C(C)(C)C)C(=O)NS(=O)(=O)C1(CC)CC1 [Cpd 111],< 0.1,< 0.1,
C=C[C@@H]1C[C@]1(NC(=O)[C@@H]1C[C@@H](Oc2ncc(Cl)c3ccccc23)CN1C(=O)[C@@H](NC(=O)OC(C)C)C(C)(C)C)C(=O)NS(=O)(=O)C1(CC)CC1 [Cpd 112],< 0.1,0.1 to 1,
C=C[C@@H]1C[C@]1(NC(=O)[C@@H]1C[C@@H](Oc2nc(Cl)cc3c(OC)cccc23)CN1C(=O)[C@@H](NC(=O)OC(C)(C)C)C(C)(C)C)C(=O)NS(=O)(=O)C1(CC)CC1 [Cpd 113],,0.1 to 1,< 0.1

# Source: US7135462B2, “Hepatitis C virus inhibitors” (priority 2003, dated 2006)
